How the values were obtained:
caspase-3 = target: T1, caspase-3 (Homo sapiens, UniProt P42574); test: Caspase-3 in red blood cells incubated with patient plasma; format: cell-based
T1 construct: EMR suppressed the caspase-3 up-regulation in the COVID-19 plasma incubated samples; endogenous in cells; host or cells: red blood cells of healthy subjects incubated with patient plasma
T1 sequence (P42574 29-277): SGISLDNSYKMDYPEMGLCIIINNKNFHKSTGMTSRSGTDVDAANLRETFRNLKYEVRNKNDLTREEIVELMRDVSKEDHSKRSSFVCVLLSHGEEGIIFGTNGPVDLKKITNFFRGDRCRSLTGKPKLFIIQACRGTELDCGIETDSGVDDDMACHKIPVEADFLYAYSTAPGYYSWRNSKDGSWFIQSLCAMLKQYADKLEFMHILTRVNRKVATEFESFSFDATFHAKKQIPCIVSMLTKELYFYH

Caspase 1 = target: T2, Caspase 1 (Homo sapiens, UniProt P29466); test: FLICA flow cytometry of active caspase-1 in PBMCs from Emricasan-treated COVID-19(+) whole blood (Example 7); format: cell-based; conditions: 1 μM, 17 hours (overnight) at room temperature on a rocker; 3 samples from COVID-19 patients
T2 sequence (P29466 120-297 limits assumed): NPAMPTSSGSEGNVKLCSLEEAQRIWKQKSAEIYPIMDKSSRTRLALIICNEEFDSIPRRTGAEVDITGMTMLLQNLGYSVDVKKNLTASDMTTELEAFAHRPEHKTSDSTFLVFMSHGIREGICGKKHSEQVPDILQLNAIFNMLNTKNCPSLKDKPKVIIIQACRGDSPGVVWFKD
T2 sequence (P29466 317-404 limits assumed): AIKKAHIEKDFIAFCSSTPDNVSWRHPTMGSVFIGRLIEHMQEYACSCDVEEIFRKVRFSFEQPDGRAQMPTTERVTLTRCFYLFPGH

[1] = system: PBMCs isolated from COVID-19 patient samples; test: "Red ring" contaminating RBC layer in PBMC preparation; format: cell-based, human; conditions: 1 micromolar, room temperature, 17 hours
Description: One of the observations made during the preparation of peripheral blood mononuclear cells (PBMC) for some of the experiments described herein was the presence of a contaminating red blood cell (RBC) layer in the PBMC layer, which was referred to as a “red ring”. This “red ring” was present in all COVID-19 patient samples, with no difference between critically ill patients and those who were only on supportive care outside the ICU setting (see FIG. 12A).
When PBMCs isolated from COVID-19 patient samples were incubated with Emricasan (1 micromolar) at room temperature for 17 hours, a decrease in the “red ring” was observed.

caspase-1 = caspase-1 (Homo sapiens, UniProt P29466); test: Ex vivo stimulation study: active caspase-1 in CD4 T cells after whole blood incubation with caspase inhibitors (Example 9); format: cell-based; conditions: whole blood incubated with inhibitor, 24 hrs later with or without nigericin stimulation
[2] = in vivo; cited from earlier work
mild COVID-19 = test: Phase 1 double-blinded placebo-controlled safety and tolerability study in mild-COVID-19 outpatients; format: in vivo, human
Protocol: A double-blinded, placebo-controlled randomized safety and tolerability study (1:1 active:placebo) was performed in a number symptomatic outpatient mild-COVID-19 patients receiving standard of care therapy. A total of 13 patients were enrolled at a single site in New York City. Treatment involved administering Emricasan (EMR) (or placebo) at 25 mg BID dosing for 14 days, with follow-up for an additional month. […] This study was thus designed to evaluate safety and tolerability, with the primary endpoint being the difference, if any, between treatment-related adverse events (AEs), including severe adverse events (SAEs), if any, in the active (EMR) and placebo groups through day 14. The pharmacokinetics (PK) of EMR has been extensively studied in earlier clinical trials. Accordingly, patients in this Phase 1 study were sampled at the end of the study to confirm that Emricasan pharmacokinetics was not altered in COVID-19 patients. Secondary endpoints included various clinical and laboratory measures and patient reported outcomes (PROs) using a COVID-19-related assessment tool.

In the case of `C[C@H](NC(=O)C(=O)Nc1ccccc1C(C)(C)C)C(=O)N[C@@H](CC(=O)O)C(=O)COc1c(F)c(F)cc(F)c1F` [Emricasan, (3S)-3-{[(2S)-2-{[2-(2-tert-butylanilino)-2-oxoacetyl]amino}propanoyl]amino}-4-oxo-5-(2,3,5,6-tetrafluorophenoxy)pentanoic acid], the “caspase-3 up-regulation in RBCs” value (caspase-3; COVID-19 plasma incubated samples) is reported as “suppressed”, the “baseline caspase-3 expression levels in RBCs” value (caspase-3; influenza-plasma incubated samples) is reported as “did not change” and the “samples with inhibition of nigericin-induced Caspase-1 activity” value (Caspase 1) is reported as “⅓”. The “"red ring" (contaminating RBC layer)” value [1] was “decrease”, the “T-helper cell caspase-1 expression in COVID-19 samples” value (caspase-1) was “suppressed” and the “T-helper cell caspase-1 upregulation in healthy subjects” value (caspase-1) was “prevented its upregulation”. The “safety and tolerance profile in humans” value [2] was “excellent safety and tolerance profile”, the serious adverse events (mild COVID-19; 25 mg BID for 14 days) was “no reports of serious adverse events” and the safety and tolerability (mild COVID-19; 25 mg BID for 14 days, 2 weeks of dosing and week 10 follow up, compared to placebo) was “safe and well tolerated”. The “resolution of symptoms most commonly associated with mild COVID-19 (cough, headache, fatigue)” value (mild COVID-19; 25 mg BID for 14 days, at day 7, continued through Day 45, patients who completed treatment) was “complete resolution” and the caspase biomarkers (mild COVID-19; all subjects in the EMR treatment group) was “decreases”.
In the case of `CCO[C@@H]1OC(=O)C[C@@H]1NC(=O)[C@@H]1CCCN1C(=O)[C@@H](NC(=O)c1ccc(N)c(Cl)c1)C(C)(C)C` [VX765], the “T-helper cell caspase-1 expression in COVID-19 samples” value (caspase-1) is reported as “did not show a strong similar suppressive effect”.

Reference: patent US20230042509A1, “TREATMENT FOR DISEASES CAUSED BY RNA VIRUSES” (Amerimmune LLC, priority 2021, published 2023)
